The values below come from ChEMBL document CHEMBL1123763, “Resolution of (+/-)-2-tetradecyloxiranecarboxylic acid. Absolute configuration and chiral synthesis of the hypoglycemic R enantiomer and biological activity of enantiomers” (J Med Chem, 1987).

Activity calls are given as the source filed them. The rule behind the calls is not given here.

In assay [1] the test system is Rattus norvegicus. The assay can be described thus: Rat glucose tolerance in vivo expressed as minimum effective dose (MED), it is the lowest dose giving a statistically significant (p<0.05) lowering at any time point. The assay is classed as functional. The conditions noted are these: read-out: MED.
Assay [2] concerns Rattus norvegicus. The assay can be described thus: Rat glucose tolerance test was determined in vivo at 75 mg/kg perorally. The assay is classed as functional. The conditions noted are these: route oral.
Assay [3] addresses T1, Carnitine O-palmitoyltransferase 1, liver isoform (Rattus norvegicus, UniProt P32198).
T1 sequence (P32198 whole entry): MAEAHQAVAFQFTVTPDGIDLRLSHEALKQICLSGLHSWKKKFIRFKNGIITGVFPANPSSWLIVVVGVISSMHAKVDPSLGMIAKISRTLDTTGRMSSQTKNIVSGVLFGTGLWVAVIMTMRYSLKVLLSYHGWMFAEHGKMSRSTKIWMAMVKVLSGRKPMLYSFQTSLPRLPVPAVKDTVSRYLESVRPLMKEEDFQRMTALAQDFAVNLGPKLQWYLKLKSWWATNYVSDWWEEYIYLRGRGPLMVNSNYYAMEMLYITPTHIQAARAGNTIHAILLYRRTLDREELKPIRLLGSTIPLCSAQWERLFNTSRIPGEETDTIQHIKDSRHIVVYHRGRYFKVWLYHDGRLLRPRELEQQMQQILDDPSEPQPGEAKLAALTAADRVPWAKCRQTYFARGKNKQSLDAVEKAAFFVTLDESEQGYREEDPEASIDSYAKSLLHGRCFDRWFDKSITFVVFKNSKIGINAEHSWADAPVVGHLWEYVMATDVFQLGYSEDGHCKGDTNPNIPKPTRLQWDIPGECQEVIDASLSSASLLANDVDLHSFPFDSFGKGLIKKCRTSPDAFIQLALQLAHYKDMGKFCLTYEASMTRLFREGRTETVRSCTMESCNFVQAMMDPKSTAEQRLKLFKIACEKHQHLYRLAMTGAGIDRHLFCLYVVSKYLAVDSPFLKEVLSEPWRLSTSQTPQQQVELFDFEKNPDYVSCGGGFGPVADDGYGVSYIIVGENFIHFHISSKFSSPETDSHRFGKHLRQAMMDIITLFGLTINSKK
The assay can be described thus: Inhibition of carnitine palmitoyl transferase (CPT), assessed with isolated rat liver mitochondria.

For assay [4], the species on record is Rattus norvegicus. Kind of assay: In vitro inhibition of [1-14C]palmitate oxidation in rat hemidiaphragms; Inactive. It is filed as functional.
Assay [5] relates to Rattus norvegicus. Kind of assay: Rat glucose tolerance in vivo expressed as minimum effective dose (MED), it is the lowest dose giving a statistically significant (p<0.05) lowering at any time point; Inactive. The assay is classed as functional, organism-based.
In assay [6] the test system is Rattus norvegicus. Kind of assay: Rat glucose tolerance test was determined in vivo at 100 mg/kg perorally; Inactive. The arrangement: dose 100 mg/kg. The assay is classed as functional, organism-based.
The target of assay [7] is T1, Carnitine O-palmitoyltransferase 1, liver isoform. Kind of assay: Inhibition of carnitine palmitoyl transferase (CPT), assessed with isolated rat liver mitochondria; Inactive.
The species entered for assay [8] is Rattus norvegicus. The assay can be described thus: In vitro inhibition of [1-14C]palmitate oxidation in rat hemidiaphragms. The assay is classed as functional.
Assay [9] has as its system Rattus norvegicus. Kind of assay: Rat glucose tolerance test was determined in vivo at 100 mg/kg perorally. It is filed as functional. The following applies: route oral.
The subject of assay [10] is Rattus norvegicus. The assay can be described thus: Rat glucose tolerance test was determined in vivo at 10 mg/kg perorally. The assay is classed as functional. The following applies: route oral.

As for `CCCCCCCCCCCCCCC1(C(=O)OC)CO1` (racemic) [METHYL PALMOXIRATE], in assay [1], the minimal effective dose was 2 mg/kg. Also, the Lowering in assay [2] is given as 45%. In addition, the IC50 in assay [3] was determined as 0.09 µM.
As to `CCCCCCCCCCCCCC[C@@]1(C(=O)O)CO1`, the IC50 entry in assay [4] and in [7] was “Not Active” throughout. Moreover, in assay [5], the MED entry was “inactive”. The Lowering entry in assay [6] is “inactive”.
Molecule `CCCCCCCCCCCCCC[C@]1(C(=O)OC)CO1` showed an IC50 in assay [3] of 0.04 µM.
Regarding `CCCCCCCCCCCCCC[C@@]1(C(=O)SCCNC(=O)CCNC(=O)C(O)C(C)(C)COP(=O)(O)OP(=O)(O)OC[C@H]2O[C@@H](n3cnc4c(N)ncnc43)[C@H](O)[C@@H]2OP(=O)(O)O)CO1` (some centres undefined), the IC50 entry in [7] was “Not Active”.
The molecule `CCCCCCCCCCCCCCC1(C(=O)SCCNC(=O)CCNC(=O)C(O)C(C)(C)COP(=O)(O)OP(=O)(O)OC[C@H]2O[C@@H](n3cnc4c(N)ncnc43)[C@H](O)[C@@H]2OP(=O)(O)O)CO1` (mixture of isomers) had an IC50 in assay [3] of 0.03 µM.
With `CCCCCCCCCCCCCCC1(C(=O)O)CO1` (racemic) [PALMOXIRATE], the figures for the IC50 in [8] and in assay [3] were 2.2 µM and 0.04 µM, respectively. Moreover, the minimal effective dose in assay [1] came to 5 mg/kg. The molecule also registered a Lowering in [9] of 53%.
On to `CCCCCCCCCCCCCC[C@]1(C(=O)O)CO1`, for which the IC50 in [8] came out at 1.2 µM; in assay [3] it was 0.03 µM. In assay [1], the minimal effective dose is 5 mg/kg. Moreover, the Lowering in [10] is 25%.
As to `CCCCCCCCCCCCCC[C@]1(C(=O)SCCNC(=O)CCNC(=O)C(O)C(C)(C)COP(=O)(O)OP(=O)(O)OC[C@H]2O[C@@H](n3cnc4c(N)ncnc43)[C@H](O)[C@@H]2OP(=O)(O)O)CO1` (some centres undefined), the IC50 in [3] is 0.02 µM. This counts as double-digit nanomolar.
